In US20110230485A1, “6-PHENYL-PYRIMIDIN-4-YL-(PHENYLAMINE OR PHENOXY) DERIVATIVES USEFUL AS MODULATORS OF NICOTINIC ACETYLCHOLINE RECEPTORS” (NEUROSEARCH A/S, priority 2008, published 2011):

Assays:
[1] = molecular target: T1, wild-type nAChR α7 receptors (Homo sapiens, UniProt P36544); experiment: Positive modulation of nAChR α7 receptors expressed in Xenopus laevis oocytes, two-electrode voltage clamp; format: cell-based; settings: oocytes clamped at −60 mV; for Emax: read-out: Imax; for EC50: positive modulation of current induced by 100 μM acetylcholine, test compound 0.01-31.6 μM applied 30 s before and during acetylcholine
T1 construct: expressed in transfected cells; host or cells: Xenopus laevis oocytes
Method: In this example the positive modulation of wild-type nAChR α7 receptors by the compounds of the invention was determined using nAChR α7 receptors heterologously expressed in Xenopus laevis oocytes.
The electrical current through the nAChR α7 channel was measured using conventional two-electrode voltage clamp and nAChR α7 currents were activated by applying pulses of agonist-containing solution onto the nAChR α7 expressing oocyte.
In brief, the oocytes were placed in a recording chambers and continuously super-fused with an Oocyte Ringer (OR) solution containing 90 mM NaCl, 2.5 mM KCl, 2.5 mM CaCl2, 1 mM MgCl2 and 5 mM HEPES (pH adjusted to 7.4). The oocytes were clamped at −60 mV and currents were induced by applying 20 s pulses of 100 μM acetylcholine dissolved in OR. The intervals between the acetylcholine applications were 5 minutes, during which the oocytes were washed with OR. The first three applications were control applications to insure a constant response level of 100 μM acetylcholine. For the subsequent test applications, increasing concentrations (0.01-31.6 μM) of the test compound were applied 30 s before and during the acetylcholine (100 μM) application, which caused a robust increase in the acetylcholine-induced current amplitude.
The positive modulation in the presence of Compound was calculated as (test-control)/control×100% and the concentration response curve for this positive modulation was fitted to the sigmoidal logistic equation:
I=Imax/(1+(EC50/[compound])^n),
where Imax represents the maximal modulation of the control response, EC50 is the concentration causing a half maximal response, and n is the slope coefficient.

[2] = maximal modulation of the control response to 100 μM acetylcholine, (test-control)/control×100%

T1 sequence (P36544 23-502): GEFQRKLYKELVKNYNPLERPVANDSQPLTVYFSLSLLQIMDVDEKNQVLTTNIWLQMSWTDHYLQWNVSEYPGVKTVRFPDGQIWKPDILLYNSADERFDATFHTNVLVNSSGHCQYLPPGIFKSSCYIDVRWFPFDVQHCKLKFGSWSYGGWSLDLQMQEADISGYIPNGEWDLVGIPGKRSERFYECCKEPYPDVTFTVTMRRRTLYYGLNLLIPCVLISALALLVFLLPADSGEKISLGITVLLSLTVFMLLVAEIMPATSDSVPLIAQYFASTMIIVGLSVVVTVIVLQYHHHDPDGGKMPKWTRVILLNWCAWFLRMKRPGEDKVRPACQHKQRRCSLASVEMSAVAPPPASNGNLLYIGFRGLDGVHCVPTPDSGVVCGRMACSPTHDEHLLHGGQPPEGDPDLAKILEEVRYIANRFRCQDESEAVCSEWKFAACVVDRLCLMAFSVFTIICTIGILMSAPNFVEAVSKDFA

| SMILES | Emax [1, 2] | melting point | EC50 [1] | Imax [1, 2] |
| --- | --- | --- | --- | --- |
| COc1ccc(Nc2ncnc(-c3ccc(C(F)(F)F)cc3F)c2[N+](=O)[O-])cc1 [Compound 1.1, [6-(2-Fluoro-4-trifluoromethyl-phenyl)-5-nitro-pyrimidin-4-yl]-(4-methoxy-phenyl)-amine] | 2% | 155.6 to 155.8 °C | – | – |
| O=[N+]([O-])c1c(Nc2ccc(O)cc2)ncnc1-c1ccc(C(F)(F)F)cc1F [Compound 1.2, 4-[6-(2-Fluoro-4-trifluoromethyl-phenyl)-5-nitro-pyrimidin-4-ylamino]-phenol] | 391% | 169 to 171.5 °C | 23 µM | – |
| COc1ccc(Nc2ncnc(-c3ccc(C(F)(F)F)cc3F)c2N)cc1 [Compound 1.3, 6-(2-Fluoro-4-trifluoromethyl-phenyl)-N*4*-(4-methoxy-Phenyl)-pyrimidine-4,5-diamine] | – | 212.1 to 213.2 °C | 2.3 µM | – |
| Nc1c(Nc2ccc(O)cc2)ncnc1-c1ccc(C(F)(F)F)cc1F [Compound 1.4, 4-[5-Amino-6-(2-fluoro-4-trifluoromethyl-phenyl)-pyrimidin-4-ylamino]-phenol] | – | 194.2 to 195.7 °C | – | – |
| COc1ccc(Nc2ncnc(-c3ccc(C(F)(F)F)cc3F)c2[N+](=O)[O-])cn1 [Compound 1.5, [6-(2-Fluoro-4-trifluoromethyl-phenyl)-5-nitro-pyrimidin-4-yl]-(6-methoxy-pyridin-3-yl)-amine] | 137% | – | 6.6 µM | – |
| COc1ccc(Nc2ncnc(-c3ccc(C(F)(F)F)cc3F)c2N)cn1 [Compound 1.6, 6-(2-Fluoro-4-trifluoromethyl-phenyl)-N*4*-(6-methoxy-rwridin-3-yl)-pyrimidine-4,5-diamine] | – | – | – | 129% |
| Nc1c(Nc2ccc(S(N)(=O)=O)cc2)ncnc1-c1ccc(C(F)(F)F)cc1F [Compound 1.8, 4-[5-Amino-6-(2-fluoro-4-trifluoromethyl-phenyl)-pyrimidin-4-ylamino]-benzenesulfonamide] | 237% | – | 6.8 µM | – |
| O=[N+]([O-])c1c(Nc2ccc3[nH]ccc3c2)ncnc1-c1ccc(C(F)(F)F)cc1F [Compound 1.9, [6-(2-Fluoro-4-trifluoromethyl-phenyl)-5-nitro-pyrimidin-4-yl]-(1H-indol-5-yl)-amine] | 527% | – | 6.9 µM | – |
| Nc1c(Nc2ccc3[nH]ccc3c2)ncnc1-c1ccc(C(F)(F)F)cc1F [Compound 1.10, 6-(2-Fluoro-4-trifluoromethyl-phenyl)-N*4*-(1H-indol-5-yl)-pyrimidine-4,5-diamine] | 631% | – | 0.24 µM | – |
| Nc1c(Nc2ccc(O)nc2)ncnc1-c1ccc(C(F)(F)F)cc1F [Compound 1.11, 5-[5-Amino-6-(2-fluoro-4-trifluoromethyl-phenyl)-pyrimidin-4-ylamino]-pyridin-2-ol] | 22% | – | – | – |
| Nc1c(Nc2ccc3[nH]ncc3c2)ncnc1-c1ccc(C(F)(F)F)cc1F [Compound 1.12, 6-(2-Fluoro-4-trifluoromethyl-phenyl)-N*4*-(1H-indazol-5-yl)-pyrimidine-4,5-diamine] | 184% | – | 9.9 µM | – |
| Nc1c(Nc2ccc3c(c2)OCO3)ncnc1-c1ccc(C(F)(F)F)cc1F [Compound 1.13, N*4*-Benzo[1,3]dioxol-5-yl-6-(2-fluoro-4-trifluoromethyl-phenyl)-pyrimidine-4,5-diamine] | 848% | – | 54 µM | – |
| Nc1c(Nc2ccc(OCC3CC3)cc2)ncnc1-c1ccc(C(F)(F)F)cc1F [Compound 1.14, N*4*-(4-Cyclopropylmethoxy-phenyl)-6-(2-fluoro-4-trifluoromethyl-phenyl)-pyrimidine-4,5-diamine] | 3% | – | – | – |
| COc1ccc(Nc2nc(C)nc(-c3ccc(C(F)(F)F)cc3F)c2N)cc1 [Compound 1.16, 6-(2-Fluoro-4-trifluoromethyl-phenyl)-N*4*-(4-methoxy-phenyl)-2-methyl-pyrimidine-4,5-diamine] | 495% | – | 4.9 µM | – |
| Cc1ccc(Nc2nc(C)nc(-c3ccc(C(F)(F)F)cc3F)c2N)cc1 [Compound 1.27, 6-(2-Fluoro-4-trifluoromethyl-phenyl)-2-methyl-N*4*-p-tolyl-pyrimidine-4,5-diamine] | 503% | – | 3.4 µM | – |
| Cc1nc(Nc2ccc3c(c2)OCCO3)c(N)c(-c2ccc(C(F)(F)F)cc2F)n1 [Compound 1.29, N*4*-(2,3-Dihydro-benzo[1,4 dioxin-6-yl)-6-(2-fluoro-4-trifluoromethyl-phenyl)-2-methyl-pyrimidine-4,5-diamine] | 297% | – | 9.4 µM | – |
| COc1cccc(Nc2nc(C)nc(-c3ccc(C(F)(F)F)cc3F)c2N)c1 [Compound 1.31, 6-(2-Fluoro-4-trifluoromethyl-phenyl)-N*4*-(3-methoxy-phenyl)-2-methyl-pyrimidine-4,5-diamine] | 193% | – | 5.7 µM | – |
| CSc1cccc(Nc2nc(C)nc(-c3ccc(C(F)(F)F)cc3F)c2N)c1 [Compound 1.32, 6-(2-Fluoro-4-trifluoromethyl-phenyl)-2-methyl-N*4*-(3-methylsulfanyl-phenyl)-pyrimidine-4,5-diamine] | 245% | – | 9.8 µM | – |
| COc1ccc(Nc2nc(C)nc(-c3ccc(C(F)(F)F)cc3F)c2N)c(OC)c1 [Compound 1.33, N*4*-(2,4-Dimethoxy-phenyl)-6-(2-fluoro-4-trifluoromethyl-phenyl)-2-methyl-pyrimidine-4,5-diamine] | 11% | – | 1.1 µM | – |
| Cc1nc(Nc2ccc3ccccc3c2)c(N)c(-c2ccc(C(F)(F)F)cc2F)n1 [Compound 1.34, 6-(2-Fluoro-4-trifluoromethyl-phenyl)-2-methyl-N*4*-naphthalen-2-v1-pyrimidine-4,5-diamine] | 148% | – | 4.3 µM | – |
| COc1ccc(Oc2ncnc(-c3ccc(C(F)(F)F)cc3F)c2[N+](=O)[O-])cc1 [Compound 2.1, 4-(2-Fluoro-4-trifluoromethyl-phenyl)-6-(4-methoxy-phenoxy)-5-nitro-pyrimidine] | 19% | – | – | – |
| COc1ccc(Oc2ncnc(-c3ccc(C(F)(F)F)cc3F)c2N)cc1 [Compound 2.2, 4-(2-Fluoro-4-trifluoromethyl-phenyl)-6-(4-methoxy-phenoxy)-pyrimidin-5-ylamine] | 119% | – | 6.6 µM | – |
| Nc1c(Oc2ccc(O)cc2)ncnc1-c1ccc(C(F)(F)F)cc1F [Compound 2.3] | 104% | – | 15 µM | – |
| Cc1nc(Oc2ccc3c(c2)OCO3)c(N)c(-c2ccc(C(F)(F)F)cc2F)n1 [Compound 2.9] | 35% | – | 0.74 µM | – |
| COc1ccc(Oc2nc(C)nc(-c3ccc(C(F)(F)F)cc3F)c2N)cc1 [Compound 2.13, 4-(2-Fluoro-4-trifluoromethyl-phenyl)-6-(4-methoxy-phenoxy)-2-methyl-pyrimidin-5-ylamine] | 42% | – | 6 µM | – |
